ChEMBL document CHEMBL1137405, “Structural basis for the structure-activity relationships of peroxisome proliferator-activated receptor agonists” (J Med Chem, 2006)

Columns and labels:
[1] = target: T1, Peroxisome proliferator-activated receptor alpha (Homo sapiens, UniProt Q07869); experiment: (§1) Activity at human PPAR alpha in Huh7 cells by transactivation assay; assay type: cell-based, Huh-7
T1 sequence (Q07869 whole entry): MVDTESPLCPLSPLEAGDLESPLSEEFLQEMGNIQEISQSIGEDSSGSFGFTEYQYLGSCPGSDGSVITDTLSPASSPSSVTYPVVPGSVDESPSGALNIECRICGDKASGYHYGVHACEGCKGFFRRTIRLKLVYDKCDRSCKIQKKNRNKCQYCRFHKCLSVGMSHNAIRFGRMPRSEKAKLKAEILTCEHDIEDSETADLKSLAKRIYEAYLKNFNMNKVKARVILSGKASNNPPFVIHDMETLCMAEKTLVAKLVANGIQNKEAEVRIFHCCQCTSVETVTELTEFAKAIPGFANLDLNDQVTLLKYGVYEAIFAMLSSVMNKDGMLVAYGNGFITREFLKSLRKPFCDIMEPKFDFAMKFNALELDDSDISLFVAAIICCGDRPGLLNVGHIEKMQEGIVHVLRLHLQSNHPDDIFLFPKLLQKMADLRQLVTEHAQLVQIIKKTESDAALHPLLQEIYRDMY

[2] = target: T2, Peroxisome proliferator-activated receptor gamma (Homo sapiens, UniProt P37231); assay type: cell-based, Huh-7
T2 sequence (P37231 whole entry): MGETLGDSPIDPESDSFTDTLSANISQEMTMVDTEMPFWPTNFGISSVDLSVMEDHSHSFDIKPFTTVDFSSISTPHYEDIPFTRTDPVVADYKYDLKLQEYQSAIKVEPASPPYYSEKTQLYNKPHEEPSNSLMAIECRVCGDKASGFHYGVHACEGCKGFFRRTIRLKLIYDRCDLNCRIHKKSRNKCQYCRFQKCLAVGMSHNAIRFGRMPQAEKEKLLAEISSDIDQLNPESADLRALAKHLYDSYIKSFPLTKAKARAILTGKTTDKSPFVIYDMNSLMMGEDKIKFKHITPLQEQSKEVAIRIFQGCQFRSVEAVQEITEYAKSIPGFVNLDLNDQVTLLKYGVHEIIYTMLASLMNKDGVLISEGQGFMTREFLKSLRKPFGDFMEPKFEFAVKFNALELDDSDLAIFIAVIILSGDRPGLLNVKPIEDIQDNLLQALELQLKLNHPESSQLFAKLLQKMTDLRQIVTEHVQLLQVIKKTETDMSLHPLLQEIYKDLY
Description: Activity at human PPAR gamma in Huh7 cells by transactivation assay

[3] = target: T3, Peroxisome proliferator-activated receptor delta (Homo sapiens, UniProt Q03181); experiment: Activity at human PPAR delta in Huh7 cells by transactivation assay; assay type: cell-based, Huh-7
T3 sequence (Q03181 whole entry): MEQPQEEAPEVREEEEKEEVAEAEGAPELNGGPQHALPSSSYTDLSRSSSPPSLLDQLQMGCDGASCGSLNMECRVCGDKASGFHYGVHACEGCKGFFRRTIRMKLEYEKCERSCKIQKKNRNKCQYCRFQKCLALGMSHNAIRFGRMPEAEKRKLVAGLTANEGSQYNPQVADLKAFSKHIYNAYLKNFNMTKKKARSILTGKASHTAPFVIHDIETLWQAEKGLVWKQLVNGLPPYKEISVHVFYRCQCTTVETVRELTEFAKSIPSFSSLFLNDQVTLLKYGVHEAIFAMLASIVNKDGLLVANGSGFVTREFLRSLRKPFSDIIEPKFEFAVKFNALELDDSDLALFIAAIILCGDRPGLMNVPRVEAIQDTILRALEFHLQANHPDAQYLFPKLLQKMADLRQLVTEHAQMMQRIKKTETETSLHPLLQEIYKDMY

[4] = target: T4, Peroxisome proliferator-activated receptor alpha (Homo sapiens) (UniProt Q07869); experiment: as §1; assay type: cell-based; settings: Huh-7, filed as agonist
T4 sequence (whole entry): T1 sequence (Q07869 whole entry)

| EC50 [1] [nM] | EC50 [2] [nM] | EC50 [3] [µM] | Activity [4] | Structure (SMILES) |
| --- | --- | --- | --- | --- |
| 1100 | 470 | 4.63 |  | CCCc1c(OCCCn2ccc3ccc(OC(C)(C)C(=O)O)cc32)ccc2cc(C(=O)c3ccccc3)ccc12 |
| 32 | 2210 | > 10 | Agonist | CCCc1c(OCCCn2ccc3cc(OCC(=O)O)ccc32)ccc2cc(C(=O)c3ccccc3)ccc12 |
| 206 | 4220 | > 10 |  | CCCc1c(OCCCn2ccc3c(OCC(=O)O)cccc32)ccc2cc(C(=O)c3ccccc3)ccc12 |
| 123 | 650 | > 10 | Agonist | CCCc1c(OCCCn2ccc3cc(OC(C)(C)C(=O)O)ccc32)ccc2cc(C(=O)c3ccccc3)ccc12 |
|  |  |  | Agonist | CCCc1c(OCCCOc2ccc3c(ccn3CC(=O)O)c2)ccc2cc(C(=O)c3ccccc3)ccc12 |
| 2080 | 3470 | 6.98 |  | CCCc1c(OCCCn2ccc3ccc(OCC(=O)O)cc32)ccc2cc(C(=O)c3ccccc3)ccc12 |

| Structure (SMILES) | EC50 [1] [nM] | EC50 [2] [nM] | EC50 [3] [µM] | Activity [4] |
| --- | --- | --- | --- | --- |
| CCCc1c(OCCCn2ccc3c(OC(C)(C)C(=O)O)cccc32)ccc2cc(C(=O)c3ccccc3)ccc12 | 282 | 210 | 4.3 | Agonist |
